Experimental data from patent US9145372B2, “Pyridazine derivatives, compositions and methods for treating cognitive impairment” (AGENEBIO, INC., priority 2010, dated 2015).
Entries after “also recorded” stand apart in the source; their conditions may differ.

Key:
aged-impaired (AI) rats [1] = experiment: Radial Arm Maze (RAM) behavioral task, spatial memory retention; format: in vivo, rat; conditions: four-hour delay RAM
Description: The effects of methyl 3,5-diphenylpyridazine-4-carboxylate on the in vivo spatial memory retention of aged-impaired (AI) rats were assessed in a Radial Arm Maze (RAM) behavioral task using vehicle control and four different dosage levels of methyl 3,5-diphenylpyridazine-4-carboxylate (0.1 mg/kg, 0.3 mg/kg, 1 mg/kg and 3 mg/kg, ip). RAM behavioral tasks were performed on eight AI rats. All five treatment conditions (vehicle and four dosage levels) were tested on all eight rats.
The RAM apparatus used consisted of eight equidistantly-spaced arms. An elevated maze arm (7 cm width×75 cm length) projected from each facet of an octagonal center platform (30 cm diameter, 51.5 cm height). Clear side walls on the arms were 10 cm high and were angled at 65° to form a trough. A food well (4 cm diameter, 2 cm deep) was located at the distal end of each arm. Froot Loops™ (Kellogg Company) were used as rewards. Blocks constructed of Plexiglas™ (30 cm height×12 cm width) could be positioned to prevent entry to any arm. Numerous extra maze cues surrounding the apparatus were also provided.
The AI rats were initially subjected to a pre-training test (Chappell et al. Neuropharmacology 37: 481-487, 1998). The pre-training test consisted of a habituation phase (4 days), a training phase on the standard win-shift task (18 days) and another training phase (14 days) in which a brief delay was imposed between presentation of a subset of arms designated by the experimenter (e.g., 5 arms available and 3 arms blocked) and completion of the eight-arm win-shift task (i.e., with all eight arms available).
In the habituation phase, rats were familiarized to the maze for an 8-minute session on four consecutive days. In each of these sessions, food rewards were scattered on the RAM, initially on the center platform and arms and then progressively confined to the arms. After this habituation phase, a standard training protocol was used, in which a food pellet was located at the end of each arm. Rats received one trial each day for 18 days. Each daily trial terminated when all eight food pellets had been obtained or when either 16 choices were made or 15 minutes had elapsed. After completion of this training phase, a second training phase was carried out in which the memory demand was increased by imposing a brief delay during the trial. At the beginning of each trial, three arms of the eight-arm maze were blocked. Rats were allowed to obtain food on the five arms to which access was permitted during this initial “information phase” of the trial. Rats were then removed from the maze for 60 seconds, during which time the barriers on the maze were removed, thus allowing access to all eight arms. […]

GABAA α5 receptor = GABAA α5 receptor (Rattus norvegicus, UniProt P18508+P19969); experiment: GABAA α5 receptor occupancy in vivo with Ro 15-4513 tracer (hippocampus vs cerebellum); conditions: i.v.
Description: Adult male Long Evans rats (265-295 g, Charles River, Portage, Mich., n=4/group) were used for GABAA α5 receptor occupancy studies. Rats were individually housed in ventilated stainless-steel racks on a 12:12 light/dark cycle. Food and water were available ad libitum.
Ro 15-4513 was used as a receptor occupancy (RO) tracer for GABAA α5 receptor sites in the hippocampus and cerebellum. Ro 15-4513 was chosen as the tracer based on its selectivity for GABAA α5 receptors relative to other alpha subunit containing GABAA receptors and because it has been successfully used for GABAA α5 RO studies in animals and humans (see, e.g., Lingford-Hughes et al., J. Cereb. Blood Flow Metab. 22:878-89 (2002); Pym et al, Br. J. Pharmacol. 146: 817-825 (2005); and Maeda et al., Synapse 47: 200-208 (2003)). Ro 15-4513 (1 μg/kg), was dissolved in 25% hydroxyl-propyl beta-cyclodextrin and administered i.v. 20′ prior to the RO evaluations. Methyl 3,5-diphenylpyridazine-4-carboxylate (0.1-10 mg/kg) was synthesized by Nox Pharmaceuticals (India) and was dissolved in 25% hydroxyl-propyl beta-cyclodextrin and administered i.v. 15′ prior to tracer injection.
The rats were sacrificed by cervical dislocation 20′ post tracer injection. The whole brain was rapidly removed, and lightly rinsed with sterile water. Trunk blood was collected in EDTA coated eppendorf tubes and stored on wet ice until study completion. Hippocampus and cerebellum were dissected and stored in 1.5 ml eppendorf tubes, and placed on wet ice until tissue extraction. In a drug naïve rat, six cortical brain tissues samples were collected for use in generating blank and standard curve samples.
Acetonitrile containing 0.1% formic acid was added to each sample at a volume of four times the weight of the tissue sample. For the standard curve (0.1-30 ng/g) samples, a calculated volume of standard reduced the volume of acetonitrile. The sample was homogenized (FastPrep-24, Lysing Matrix D; 5.5 m/s, for 60 seconds or 7-8 watts power using sonic probe dismembrator; Fisher Scientific) and centrifuged for 16-minutes at 14,000 rpm. The (100 μl) supernatant solution was diluted by 300 μl of sterile water (pH 6.5). This solution was then mixed thoroughly and analyzed via LC/MS/MS for […] (tracer) and methyl 3,5-diphenylpyridazine-4-carboxylate.
Receptor occupancy was determined by the ratio method which compared occupancy in the hippocampus (a region of high GABAA α5 receptor density) with occupancy in the cerebellum (a region with low GABAA α5 receptor density) and additionally by a high dose of the GABAA α5 negative allosteric modulator L-655,708 (10 mg/kg, i.v.) to define full occupancy.

aged-impaired (AI) rats [2] = experiment: Morris water maze behavioral task after ICV infusion; format: in vivo, rat; conditions: 100 μg ICV
Description: The effects of 6,6 dimethyl-3-(3-hydroxypropyl)thio-1-(thiazol-2-yl)-6,7-dihydro-2-benzothiophen-4(5H)-one on the in vivo spatial memory retention of aged-impaired (AI) rats were assessed in a Morris water maze behavioral task. A water maze is a pool surrounded with a novel set of patterns relative to the maze.
Cognitively impaired aged rats were implanted unilaterally with a cannula into the lateral ventricle. Stereotaxic coordinates were 1.0 mm posterior to bregma, 1.5 mm lateral to midline, and 3.5 mm ventral to the skull surface. After about a week of recovery, the rats were pre-trained in a water maze for 2 days (6 trials per day) to locate a submerged escape platform hidden underneath the surface of the pool, in which the escape platform location varied from day to day. No intracerebroventricular (ICV) infusion was given during pre-training
After pre-training, rats received ICV infusion of either 100 μg 6,6 dimethyl-3-(3-hydroxypropyl)thio-1-(thiazol-2-yl)-6,7-dihydro-2-benzothiophen-4(5H)-one (n=6) in 5 μl DMSO or vehicle DMSO (n=5) 40 min prior to water maze training and testing. Training consisted of 8 trials per day for 2 days where the hidden escape platform remained in the same location. Rats were given 60 seconds to locate the platform with a 60 seconds inter-trial interval. The rats were given a probe test (120 seconds) 24 hr after the end of training where the escape platform was removed. During the training, there were 4 blocks, where each block had 4 training trials.
Rats treated with vehicle and 6,6 dimethyl-3-(3-hydroxypropyl)thio-1-(thiazol-2-yl)-6,7-dihydro-2-benzothiophen-4(5H)-one found the escape platform about the same time at the beginning of training (block 1). In this block of training, rats treated with vehicle and 6,6 dimethyl-3-(3-hydroxypropyl)thio-1-(thiazol-2-yl)-6,7-dihydro-2-benzothiophen-4(5H)-one both spent about 24 seconds to find the escape platform. However, rats treated with 6,6 dimethyl-3-(3-hydroxypropyl)thio-1-(thiazol-2-yl)-6,7-dihydro-2-benzothiophen-4(5H)-one were able to find the platform more proficiently (i.e., quicker) at the end of training (block 4) than those treated with vehicle alone. In block 4, rats treated with 6,6 dimethyl-3-(3-hydroxypropyl)thio-1-(thiazol-2-yl)-6,7-dihydro-2-benzothiophen-4(5H)-one spent about 9.6 seconds to find the escape platform, while rats treated with vehicle spent about 19.69 seconds.
During a test trial 24 hr after training, the escape platform was removed. The search/swim pattern of the rats was used to measure whether the rats remember where the escape platform was located during pre-trial training in order to test for the long-term memory of the rats. […]

[3] = probe test 24 hr after training

GABAA α5 receptor, sequence (P19969 32-464 limits assumed): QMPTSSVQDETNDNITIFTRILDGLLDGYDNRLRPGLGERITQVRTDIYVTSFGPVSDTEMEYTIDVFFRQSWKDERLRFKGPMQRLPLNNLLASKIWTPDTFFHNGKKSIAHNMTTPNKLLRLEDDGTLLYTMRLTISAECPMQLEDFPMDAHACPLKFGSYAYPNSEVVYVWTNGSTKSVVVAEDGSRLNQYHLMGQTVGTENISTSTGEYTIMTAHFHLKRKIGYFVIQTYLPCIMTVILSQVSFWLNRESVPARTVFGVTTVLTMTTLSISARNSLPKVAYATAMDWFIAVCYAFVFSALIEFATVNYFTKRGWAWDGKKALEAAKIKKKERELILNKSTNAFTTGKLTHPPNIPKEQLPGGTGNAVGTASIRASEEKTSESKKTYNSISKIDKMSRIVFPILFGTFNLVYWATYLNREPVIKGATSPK
GABAA α5 receptor, sequence (P18508 39-466): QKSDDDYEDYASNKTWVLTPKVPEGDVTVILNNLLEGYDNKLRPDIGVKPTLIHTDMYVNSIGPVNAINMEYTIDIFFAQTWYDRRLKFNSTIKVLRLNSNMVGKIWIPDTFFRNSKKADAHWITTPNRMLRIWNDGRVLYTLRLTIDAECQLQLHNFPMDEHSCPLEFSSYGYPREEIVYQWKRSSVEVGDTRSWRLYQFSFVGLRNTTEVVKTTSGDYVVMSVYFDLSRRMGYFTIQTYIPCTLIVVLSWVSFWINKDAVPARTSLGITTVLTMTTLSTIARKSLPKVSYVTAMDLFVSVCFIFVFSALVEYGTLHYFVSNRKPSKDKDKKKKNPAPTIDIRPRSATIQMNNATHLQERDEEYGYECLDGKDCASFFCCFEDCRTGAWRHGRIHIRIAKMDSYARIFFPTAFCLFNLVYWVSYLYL
GABAA α5 receptor, sequence (P63079 26-473 partner): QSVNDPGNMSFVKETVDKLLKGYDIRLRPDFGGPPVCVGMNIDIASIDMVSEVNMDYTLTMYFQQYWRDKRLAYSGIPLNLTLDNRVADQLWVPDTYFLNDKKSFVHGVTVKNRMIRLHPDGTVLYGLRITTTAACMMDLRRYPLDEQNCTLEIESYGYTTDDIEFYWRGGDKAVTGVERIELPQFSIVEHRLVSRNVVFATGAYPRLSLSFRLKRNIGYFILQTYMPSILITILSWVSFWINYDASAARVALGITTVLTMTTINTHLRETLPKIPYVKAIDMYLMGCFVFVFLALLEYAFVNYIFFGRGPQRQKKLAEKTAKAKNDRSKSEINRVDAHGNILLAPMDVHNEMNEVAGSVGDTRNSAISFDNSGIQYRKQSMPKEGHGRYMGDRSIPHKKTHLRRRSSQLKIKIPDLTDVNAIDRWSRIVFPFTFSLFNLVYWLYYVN

Row | Compound | memory performance relative to vehicle control (aged-impaired (AI) rats [1]; 3 mg/kg) | memory performance relative to vehicle control (aged-impaired (AI) rats [1]; 10 mg/kg) | Ro 15-4513 binding in hippocampus (GABAA α5 receptor; 0.01-10 mg/kg) | cerebellum levels (binding) of Ro 15-4513 (GABAA α5 receptor; 0.01-10 mg/kg) | GABAA α5 receptor occupancy (GABAA α5 receptor; 10 mg/kg) [%] | time to find the escape platform (escape latency), block 1 (aged-impaired (AI) rats [2]; beginning of training) | time to find the escape platform (escape latency), block 4 (aged-impaired (AI) rats [2]; end of training) | number of crossings of target annulus compared to opposite annulus (aged-impaired (AI) rats [2]; [3]) | time in target annulus compared to opposite annulus (aged-impaired (AI) rats [2]; [3])
1 | CCOC(=O)c1ncn2c1Cn1c(C)nnc1-c1cc(OC)ccc1-2 [ethyl 3-methoxy-7-methyl-9H-benzo[f]imidazo[1,5-a][1,2,4]triazolo[4,3-d][1,4]diazepine-10-carboxylate] | significantly improved memory performance | significantly improved memory performance | blocked; also recorded: reduced | did not affect; also recorded: without affecting | > 90 |  |  |  | 
2 | CC1(C)CC(=O)c2c(SCCCO)sc(-c3nccs3)c2C1 [6,6 dimethyl-3-(3-hydroxypropyl)thio-1-(thiazol-2-yl)-6,7-dihydro-2-benzothiophen-4(5H)-one] |  |  |  |  |  | about 24 seconds | about 9.6 seconds | more often | significantly more time in the target annulus
